Experimental data from the supplement of paper PMC10307832.

How the values were obtained:
Test in all cases: relative viability (nuclei count vs DMSO), 5 days (fraction); higher = more cells survive
[1] = compound: Cc1ccc(NC(=O)c2ccc(CN3CCN(C)CC3)cc2)cc1Nc1nccc(-c2cccnc2)n1 [Imatinib] + Cc1nc(Nc2ncc(C(=O)Nc3c(C)cccc3Cl)s2)cc(N2CCN(CCO)CC2)n1 [Dasatinib] (partner 0.075 µM)
Method in brief: (§1)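 Lung cancer cell lines in 1536-well plates got either a single drug or a fixed anchor-drug dose together with five library-drug doses (not always all listed) in √10 steps, by pin tool, on the day after seeding. Nuclei were counted after 5 days, and relative viability is the treated-to-vehicle ratio of nuclei counts. Values are medians of duplicate plates.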

[2] = compound: Cc1ccc(NC(=O)c2ccc(CN3CCN(C)CC3)cc2)cc1Nc1nccc(-c2cccnc2)n1 [Imatinib] + CS(=O)(=O)CCNCc1ccc(-c2ccc3ncnc(Nc4ccc(OCc5cccc(F)c5)c(Cl)c4)c3c2)o1 [Lapatinib] (partner 2 µM)
Method in brief: as §1

[3] = compound: Cc1ccc(NC(=O)c2ccc(CN3CCN(C)CC3)cc2)cc1Nc1nccc(-c2cccnc2)n1 [Imatinib] + Nc1ncn([C@H]2C[C@H](O)[C@@H](CO)O2)c(=O)n1 [Decitabine] (partner 2 µM)
Method in brief: as §1

[4] = compound: Cc1ccc(NC(=O)c2ccc(CN3CCN(C)CC3)cc2)cc1Nc1nccc(-c2cccnc2)n1 [Imatinib] + COc1cccc2cc(-c3nc([C@H]4CC[C@H](C(=O)O)CC4)n4ncnc(N)c34)[nH]c12 [OSI-027] (partner 0.5 µM)
Method in brief: as §1

| Cell Line | relative viability ([1]; first compound 0.02 µM) | relative viability ([1]; first compound 0.2 µM) | relative viability ([1]; first compound 0.6325 µM) | relative viability ([2]; first compound 0.02 µM) | relative viability ([2]; first compound 0.06325 µM) | relative viability ([2]; first compound 0.2 µM) | relative viability ([2]; first compound 0.6325 µM) | relative viability ([3]; first compound 0.02 µM) | relative viability ([3]; first compound 0.2 µM) | relative viability ([3]; first compound 0.6325 µM) | relative viability ([4]; first compound 0.02 µM) | relative viability ([4]; first compound 0.2 µM) | relative viability ([4]; first compound 0.6325 µM) | relative viability ([4]; first compound 2 µM) | relative viability ([1]; first compound 2 µM) | relative viability ([2]; first compound 2 µM) | relative viability ([3]; first compound 0.06325 µM) | relative viability ([3]; first compound 2 µM) | relative viability ([1]; first compound 0.06325 µM) | relative viability ([4]; first compound 0.06325 µM) |
| --- | --- | --- | --- | --- | --- | --- | --- | --- | --- | --- | --- | --- | --- | --- | --- | --- | --- | --- | --- | --- |
| NCI-H2087 | 0.817 | 0.949 | 0.89 | 1.06 | 0.654 | 1.21 | 1.05 | 0.291 | 0.251 | 0.283 | 0.601 | 0.643 | 0.618 | 0.572 | – | – | – | – | – | – |
| NCI-H2405 | 0.22 | 0.203 | 0.217 | 1.05 | – | 1.1 | 0.961 | 0.707 | 0.848 | 0.724 | 0.629 | 0.645 | 0.592 | 0.641 | 0.192 | 1.15 | 0.636 | 0.722 | – | – |
| PC-14 | 0.221 | 0.2 | 0.196 | 0.388 | 0.24 | 0.301 | 0.321 | 0.253 | 0.249 | 0.199 | 0.991 | 0.856 | 0.76 | 0.833 | 0.239 | 0.317 | 0.244 | 0.208 | 0.201 | 0.282 |
| LK-2 | 0.258 | 0.282 | 0.276 | 1.02 | 0.625 | 1.11 | 0.486 | 0.336 | 0.237 | – | 0.178 | 0.151 | 0.217 | 0.212 | 0.15 | 0.967 | 0.323 | 0.183 | 0.266 | 0.207 |
| HCC-366 | 0.805 | 0.822 | 0.648 | 1.3 | – | 1.33 | 1.03 | 0.324 | 0.356 | 0.374 | 1.01 | 1.05 | 0.812 | 0.748 | 0.584 | 1.04 | 0.366 | 0.329 | – | – |
| LCLC-97TM1 | 0.926 | 0.875 | 0.81 | – | – | 0.958 | 0.878 | 0.208 | 0.253 | 0.216 | 0.562 | 0.577 | 0.542 | 0.444 | 0.86 | 0.734 | – | 0.226 | – | – |
| NCI-H596 | 0.597 | 0.831 | 0.499 | 1.17 | 1.29 | 1.13 | – | 1.12 | 1.17 | – | 0.775 | 0.689 | 0.626 | 0.61 | 0.641 | 1.03 | 1.01 | 0.971 | 0.582 | 0.669 |
| HCC-827 | 0.287 | 0.239 | 0.151 | 0.206 | 0.162 | 0.211 | 0.179 | 0.31 | 0.311 | 0.36 | – | 0.937 | 0.705 | 0.824 | 0.272 | 0.191 | 0.32 | 0.307 | 0.269 | 0.732 |
| NCI-H647 | 0.198 | 0.142 | 0.181 | – | 1.11 | 1.2 | 1.17 | 0.454 | 0.421 | 0.366 | 0.621 | 0.704 | 0.626 | 0.562 | 0.148 | 1.02 | 0.432 | 0.37 | 0.183 | 0.693 |
| LXF-289 | 0.216 | 0.217 | 0.19 | 0.974 | 0.999 | 0.96 | 0.905 | 0.387 | 0.407 | 0.391 | 0.791 | 0.814 | 0.754 | 0.724 | 0.195 | 0.873 | – | 0.405 | 0.259 | 0.556 |
| NCI-H1734 | 0.478 | 0.45 | 0.442 | 1.26 | – | 1.3 | 1.1 | 0.522 | 0.573 | 0.486 | 0.656 | 0.64 | 0.609 | 0.5 | 0.427 | – | – | 0.533 | 0.457 | 0.54 |
| SW 1573 | 0.525 | 0.604 | 0.517 | 1.33 | 0.676 | 1.28 | 0.983 | 0.646 | 0.575 | 0.471 | 0.708 | 0.685 | 0.573 | 0.548 | 0.531 | 1.17 | 0.4 | 0.437 | 0.314 | 0.24 |
| NCI-H650 | 0.5 | 0.488 | 0.53 | 1.02 | 1.16 | 1 | 1.11 | 0.299 | 0.291 | 0.313 | 0.557 | 0.51 | 0.544 | 0.459 | 0.406 | 0.85 | 0.36 | 0.262 | 0.425 | 0.496 |
| UMC-11 | 0.527 | 0.619 | 0.507 | 1.01 | 1.1 | 1.25 | 0.995 | 0.554 | 0.59 | 0.619 | 0.514 | 0.64 | 0.499 | 0.456 | 0.457 | 0.994 | 0.615 | 0.683 | 0.34 | 0.542 |
| H3255 | 0.443 | 0.351 | 0.361 | 0.234 | – | 0.268 | 0.266 | 0.605 | 0.544 | 0.633 | 0.568 | 0.539 | 0.612 | 0.548 | 0.258 | 0.23 | – | 0.504 | 0.346 | 0.662 |
| NCI-H2126 | 0.705 | 0.537 | 0.457 | – | – | 0.828 | 0.684 | 0.545 | 0.634 | 0.58 | 0.851 | 0.673 | 0.604 | 0.678 | 0.517 | 0.704 | 0.522 | 0.538 | – | 0.68 |
| NCI-H2085 | – | 0.248 | 0.208 | 0.754 | 0.591 | 0.733 | 0.819 | 0.529 | 0.513 | 0.61 | 0.823 | 0.717 | 0.724 | 0.588 | 0.228 | 0.694 | 0.556 | 0.527 | 0.18 | 0.432 |
| A-427 | – | 0.798 | 0.805 | – | – | 1.05 | 1.12 | 0.588 | 0.558 | 0.558 | 0.503 | 0.5 | 0.447 | 0.47 | 0.714 | 0.952 | 0.536 | 0.562 | – | – |
